Here are results for eleven molecules from patent publication US20090232838A1, “Ligands of melanocortin receptors” (priority 2005, published 2009).

Experiment [1] concerns the target T1, hMC3-R (Homo sapiens, UniProt P41968).
T1 construct: expressed in transfected cells; host or cells: CHO-K1
In words: cyclic AMP bioassay, hMC3-R. The class given is cell-based.

The target of experiment [2] is T2, hMC4-R (Homo sapiens, UniProt P32245).
T2 construct: expressed in transfected cells; host or cells: CHO-K1
T2 sequence (P32245 whole entry): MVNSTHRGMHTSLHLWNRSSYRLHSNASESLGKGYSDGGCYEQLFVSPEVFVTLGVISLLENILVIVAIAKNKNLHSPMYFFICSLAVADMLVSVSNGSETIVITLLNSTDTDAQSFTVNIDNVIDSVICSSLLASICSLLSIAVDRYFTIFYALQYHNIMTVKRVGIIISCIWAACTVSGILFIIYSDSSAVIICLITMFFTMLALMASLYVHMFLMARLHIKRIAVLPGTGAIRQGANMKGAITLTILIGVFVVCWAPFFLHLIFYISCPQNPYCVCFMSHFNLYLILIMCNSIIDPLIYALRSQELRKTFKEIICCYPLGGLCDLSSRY
In words: cyclic AMP bioassay, hMC4-R. The format is cell-based.

The target in experiment [3] is T2, hMC4-R. Put plainly: Radioligand binding assay, hMC4-R. As to the method: Cellular membranes used for the in vitro receptor binding assays were obtained from transgenic CHO-K1 cells stably expressing hMC-R receptor subtypes 1, 3, 4 or 5. […] The pellets were resuspended in the same buffer and centrifuged at 50,000 g for 10 minutes at approximately 4° C. The washed pellets containing the cellular membranes were stored at approximately −80° C.
Filters were washed three times with 50 mM Tris-HCl at p-H 7.4 at a temperature of approximately 0-4° C. and then assayed for radioactivity using a Packard Topcount® scintillation counter. Binding data were analyzed by computer-assisted non-linear regression analysis (XL fit; IDBS).

For experiment [4], the target named is T3, hMC1-R (Homo sapiens, UniProt Q01726).
T3 construct: expressed in transfected cells; host or cells: CHO-K1
T3 sequence (Q01726 whole entry): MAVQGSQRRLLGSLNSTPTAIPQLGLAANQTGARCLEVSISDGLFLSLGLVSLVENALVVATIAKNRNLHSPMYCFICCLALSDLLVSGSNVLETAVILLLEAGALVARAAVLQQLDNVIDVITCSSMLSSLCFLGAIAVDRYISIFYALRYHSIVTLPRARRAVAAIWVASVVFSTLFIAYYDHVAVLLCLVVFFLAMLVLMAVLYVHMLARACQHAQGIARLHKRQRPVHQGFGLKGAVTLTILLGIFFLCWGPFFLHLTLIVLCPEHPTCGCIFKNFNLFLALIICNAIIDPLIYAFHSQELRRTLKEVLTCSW
In words: cyclic AMP bioassay, hMC1-R. The format is cell-based.

In experiment [5] the target is T4, hMC5-R (Homo sapiens, UniProt P33032).
T4 construct: expressed in transfected cells; host or cells: CHO-K1
T4 sequence (P33032 whole entry): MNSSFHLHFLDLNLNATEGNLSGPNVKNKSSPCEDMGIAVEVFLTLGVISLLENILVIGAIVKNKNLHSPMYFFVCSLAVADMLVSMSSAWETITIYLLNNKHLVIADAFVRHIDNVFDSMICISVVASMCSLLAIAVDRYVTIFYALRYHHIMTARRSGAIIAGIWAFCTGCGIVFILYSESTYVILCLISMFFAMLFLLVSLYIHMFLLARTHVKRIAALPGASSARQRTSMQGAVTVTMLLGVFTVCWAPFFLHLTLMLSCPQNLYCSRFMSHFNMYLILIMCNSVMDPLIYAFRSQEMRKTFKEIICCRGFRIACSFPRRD
Put plainly: cyclic AMP bioassay, hMC5-R. The class given is cell-based.

The mark [6] stands for this setting: Table 3A, cAMP in CHO-K1 cells, antagonist potency by Schild analysis, read-out: Kb hMC3-R.
Setting [7] is: Table 3A, cAMP in CHO-K1 cells, antagonist potency by Schild analysis, read-out: Kb hMC4-R.
Setting [8] is: Table 3A, cAMP in CHO-K1 cells, agonist, read-out: EC50 hMC1-R.
Where [9] appears, read: Table 3A, cAMP in CHO-K1 cells, agonist, read-out: EC50 hMC5-R.

Structures are written as SMILES. Where two headings read alike, the source gives them in different places. Where a SMILES comes first, the peptide text is derived from it. Bridges are numbered along the chain shown (N, C = ends). [ ]: non-standard residue; d: D form. 2Nal = N[C@@H](Cc1ccc2ccccc2c1)C(=O)O; d2Nal = N[C@H](Cc1ccc2ccccc2c1)C(=O)O; Aib = CC(C)(N)C(=O)O

T1 sequence (P41968 whole entry): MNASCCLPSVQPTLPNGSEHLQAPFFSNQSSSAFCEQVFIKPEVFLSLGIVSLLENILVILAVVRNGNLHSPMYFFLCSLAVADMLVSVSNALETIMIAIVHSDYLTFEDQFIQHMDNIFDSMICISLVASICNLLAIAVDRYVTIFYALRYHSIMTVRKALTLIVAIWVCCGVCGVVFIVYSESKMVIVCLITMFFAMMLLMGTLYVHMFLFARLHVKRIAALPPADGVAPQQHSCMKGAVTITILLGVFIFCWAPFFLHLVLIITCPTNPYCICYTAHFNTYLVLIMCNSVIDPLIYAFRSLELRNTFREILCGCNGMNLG

With `CCCC[C@H](N)C(=O)N[C@H]1CC(=O)NCCCC[C@@H](C(=O)NCCOCCOCC(=O)NCCOCCOCC(=O)N[C@@H](Cc2ccc(O)cc2)C(=O)NCC(=O)N[C@@H](CCCNC(=N)N)C(=O)N[C@@H](CCCCN)C(=O)N[C@@H](CCCCN)C(=O)N[C@@H](CCCNC(=N)N)C(=O)N[C@@H](CCCNC(=N)N)C(=O)N[C@@H](CCC(N)=O)C(=O)N[C@@H](CCCNC(=N)N)C(=O)N[C@@H](CCCNC(=N)N)C(=O)N[C@@H](CCCNC(=N)N)C(N)=O)NC(=O)[C@H](Cc2c[nH]c3ccccc23)NC(=O)[C@H](CCCNC(=N)N)NC(=O)[C@@H](Cc2ccc3ccccc3c2)NC(=O)[C@H](Cc2c[nH]cn2)NC1=O`, the Kb was found to be 261 nM in experiment [1] (setting [6]) and 3.11 nM in experiment [2] (setting [7]). For the same molecule, in experiment [3] (read-out: Ki hMC4-R), the inhibition constant (Ki) was determined as 6 nM.

With `CC(=O)N[C@H]1CSSC[C@@H](C(=O)N2CCC[C@H]2C(=O)N2CCC[C@H]2C(=O)N[C@@H](CCCNC(=N)N)C(=O)N[C@@H](CC(=O)O)C(=O)NCCC(=O)N[C@@H](CCCNC(=N)N)C(=O)N[C@@H](CCCNC(=N)N)C(=O)N[C@@H](CCCNC(=N)N)C(=O)N[C@@H](CCCNC(=N)N)C(=O)N[C@@H](CCCNC(=N)N)C(=O)N[C@@H](CCC(N)=O)C(=O)N[C@@H](CCCNC(=N)N)C(=O)N[C@@H](CCCNC(=N)N)C(=O)N[C@@H](CCCNC(=N)N)C(N)=O)NC(=O)[C@H](C)NC(=O)[C@H](Cc2cccc3ccccc23)NC(=O)[C@H](CCCNC(=N)N)NC(=O)[C@@H](Cc2ccc3ccccc3c2)NC(=O)[C@H](Cc2c[nH]cn2)NC(=O)[C@H](CCC(=O)O)NC1=O`, the Kb in experiment [1] is 116 nM; in experiment [2], 8.93 nM. Besides, the EC50 in experiment [4] was 144 nM; in experiment [5], 819 nM. In experiment [3], this molecule returned a Ki of 0.293 nM.

As to `CC(=O)N[C@H]1CSSC[C@@H](C(=O)N2CCC[C@H]2C(=O)N2CCC[C@H]2C(=O)N[C@@H](CCCCN)C(=O)N[C@@H](CC(=O)O)C(=O)NCCOCCOCC(=O)N[C@@H](Cc2ccc(O)cc2)C(=O)NCC(=O)N[C@@H](CCCNC(=N)N)C(=O)N[C@@H](CCCCN)C(=O)N[C@@H](CCCCN)C(=O)N[C@@H](CCCNC(=N)N)C(=O)N[C@@H](CCCNC(=N)N)C(=O)N[C@@H](CCC(N)=O)C(=O)N[C@@H](CCCNC(=N)N)C(=O)N[C@@H](CCCNC(=N)N)C(=O)N[C@@H](CCCNC(=N)N)C(N)=O)NC(=O)[C@H](C)NC(=O)[C@H](Cc2c[nH]c3ccccc23)NC(=O)[C@H](CCCNC(=N)N)NC(=O)[C@@H](Cc2ccc3ccccc3c2)NC(=O)[C@H](Cc2c[nH]cn2)NC(=O)[C@H](CCC(=O)O)NC1=O`, the Kb in experiment [1] (setting [6]) was found to be 30.3 nM; in experiment [2] (setting [7]) it was 1.81 nM. The figures for the EC50 in experiment [4] (setting [8]) and in experiment [5] (setting [9]) were 12.1 nM and 70 nM, respectively.

For the molecule `CCCC[C@H](NC(C)=O)C(=O)N[C@H]1CSSC[C@@H](C(=O)NCCC(=O)N[C@@H](Cc2ccc(O)cc2)C(=O)NCC(=O)N[C@@H](CCCNC(=N)N)C(=O)N[C@@H](CCCCN)C(=O)N[C@@H](CCCCN)C(=O)N[C@@H](CCCNC(=N)N)C(=O)N[C@@H](CCC(N)=O)C(=O)N[C@@H](CCCNC(=N)N)C(=O)N[C@@H](CCCNC(=N)N)C(=O)N[C@@H](CCCNC(=N)N)C(=O)N[C@@H](CCCNC(=N)N)C(N)=O)NC(=O)[C@H](Cc2c[nH]c3ccccc23)NC(=O)[C@H](CCCNC(=N)N)NC(=O)[C@@H](Cc2ccccc2)NC(=O)[C@H](Cc2c[nH]cn2)NC(=O)[C@@H](C)NC1=O`, the EC50 came out at 7.73 nM in experiment [1], 5.9 nM in experiment [4], 1.02 nM in experiment [2] and 2890 nM in experiment [5].

As for `CC(=O)N[C@H]1CSSC[C@@H](C(=O)N2CCC[C@H]2C(=O)N2CCC[C@H]2C(=O)N[C@@H](CCCCN)C(=O)N[C@@H](CC(=O)O)C(=O)NCCC(=O)N[C@@H](CCCNC(=N)N)C(=O)N[C@@H](CCCNC(=N)N)C(=O)N[C@@H](CCCNC(=N)N)C(=O)N[C@@H](CCCNC(=N)N)C(=O)N[C@@H](CCCNC(=N)N)C(=O)N[C@@H](CCC(N)=O)C(=O)N[C@@H](CCCNC(=N)N)C(=O)N[C@@H](CCCNC(=N)N)C(=O)N[C@@H](CCCNC(=N)N)C(N)=O)NC(=O)[C@H](C)NC(=O)[C@H](Cc2ccc3ccccc3c2)NC(=O)[C@H](CCCNC(=N)N)NC(=O)[C@@H](Cc2ccc3ccccc3c2)NC(=O)[C@H](Cc2c[nH]cn2)NC(=O)[C@H](CCC(=O)O)NC1=O`, the Kb stood at 22.9 nM in experiment [1] and 12.6 nM in experiment [2]. The values for the EC50 in experiment [4] and in experiment [5] were 35.2 nM and 199 nM, respectively.

As for `CC(=O)N[C@H]1CSSC[C@@H](C(=O)N2CCC[C@H]2C(=O)N2CCC[C@H]2C(=O)N[C@@H](CCCCN)C(=O)N[C@@H](CC(=O)O)C(=O)NCCC(=O)N[C@@H](CCCNC(=N)N)C(=O)N[C@@H](CCCCN)C(=O)N[C@@H](CCCNC(=N)N)C(=O)N[C@@H](CCCNC(=N)N)C(=O)N[C@@H](CCCNC(=N)N)C(=O)N[C@@H](CCC(N)=O)C(=O)N[C@@H](CCCNC(=N)N)C(=O)N[C@@H](CCCNC(=N)N)C(=O)N[C@@H](CCCNC(=N)N)C(N)=O)NC(=O)[C@H](C)NC(=O)[C@H](Cc2cccc3ccccc23)NC(=O)[C@H](CCCNC(=N)N)NC(=O)[C@@H](Cc2ccc3ccccc3c2)NC(=O)[C@H](Cc2c[nH]cn2)NC(=O)[C@H](CCC(=O)O)NC1=O`, the Kb in experiment [1] worked out at 65.1 nM; in experiment [2], 15.3 nM. For the same molecule, the figures for the EC50 in experiment [4] and in experiment [5] were 33.1 nM and 1720 nM, respectively.

In the case of `CC(=O)N[C@H]1CSSC[C@@H](C(=O)N2CCC[C@H]2C(=O)N2CCC[C@H]2C(=O)N[C@@H](CCCCN)C(=O)N[C@@H](CC(=O)O)C(=O)NCCC(=O)N[C@@H](Cc2ccc(O)cc2)C(=O)NCC(=O)N[C@@H](CCCNC(=N)N)C(=O)N[C@@H](CCCCN)C(=O)N[C@@H](CCCCN)C(=O)N[C@@H](CCC(N)=O)C(=O)N[C@@H](CCCNC(=N)N)C(=O)N[C@@H](CCCNC(=N)N)C(=O)N[C@@H](CCCNC(=N)N)C(=O)N[C@@H](CCCNC(=N)N)C(=O)N[C@@H](CCCNC(=N)N)C(N)=O)NC(=O)[C@H](C)NC(=O)[C@H](Cc2c[nH]c3ccccc23)NC(=O)[C@H](CCCNC(=N)N)NC(=O)[C@@H](Cc2ccc3ccccc3c2)NC(=O)[C@H](Cc2c[nH]cn2)NC(=O)[C@H](CCC(=O)O)NC1=O`, the Kb was determined as 9.38 nM in experiment [1] (setting [6]) and 11.7 nM in experiment [2] (setting [7]). The EC50 stood at 6.7 nM in experiment [4] (setting [8]) and 46.2 nM in experiment [5] (setting [9]).

Regarding `CC(=O)N[C@H]1CSSC[C@@H](C(=O)N2CCC[C@H]2C(=O)N2CCC[C@H]2C(=O)N[C@@H](CCCCN)C(=O)N[C@@H](CC(=O)O)C(=O)NCCC(=O)N[C@@H](CCCNC(=N)N)C(=O)N[C@@H](CCCNC(=N)N)C(=O)N[C@@H](CCCNC(=N)N)C(=O)N[C@@H](CCCNC(=N)N)C(=O)N[C@@H](CCCNC(=N)N)C(=O)N[C@@H](CCC(N)=O)C(=O)N[C@@H](CCCNC(=N)N)C(=O)N[C@@H](CCCNC(=N)N)C(=O)N[C@@H](CCCNC(=N)N)C(N)=O)NC(=O)[C@H](C)NC(=O)[C@H](Cc2cccc3ccccc23)NC(=O)[C@H](CCCNC(=N)N)NC(=O)[C@@H](Cc2ccc3ccccc3c2)NC(=O)[C@H](Cc2c[nH]cn2)NC(=O)[C@H](CCC(=O)O)NC1=O`, the Kb came to 46.5 nM in experiment [1] and 11.4 nM in experiment [2]. Moreover, the EC50 in experiment [4] turned out to be 36 nM; in experiment [5], 56.1 nM.

`CC(=O)N[C@H]1CSSC[C@@H](C(=O)N2CCC[C@H]2C(=O)N2CCC[C@H]2C(=O)N[C@@H](CCCCN)C(=O)N[C@@H](CC(=O)O)C(N)=O)NC(=O)C(C)(C)NC(=O)[C@H](Cc2ccc3ccccc3c2)NC(=O)[C@H](CCCNC(=N)N)NC(=O)[C@@H](Cc2ccc3ccccc3c2)NC(=O)[C@H](Cc2c[nH]cn2)NC(=O)[C@H](CCC(=O)O)NC1=O` [Ac-c(Cys-Glu-His-D-2-Nal-Arg-2-Nal-Aib-Cys)-Pro-Pro-Lys-Asp-NH2] (Ac-CEH[d2Nal]R[2Nal][Aib]CPPKD-NH2; disulfide 1-8): the values for the Kb in experiment [1] and in experiment [2] were 221 nM and 4.52 nM, respectively. Moreover, the EC50 in experiment [4] was 770 nM; in experiment [5] it was 869 nM. In experiment [3], this molecule came in with a Ki of 5.87 nM.

As to `CC(=O)N[C@H]1CSSC[C@@H](C(=O)N2CCC[C@H]2C(=O)N2CCC[C@H]2C(=O)N[C@@H](CCCCN)C(=O)N[C@@H](CC(=O)O)C(N)=O)NC(=O)[C@H](C)NC(=O)[C@H](Cc2c[nH]c3ccccc23)NC(=O)[C@H](CCCNC(=N)N)NC(=O)[C@@H](Cc2ccc3ccccc3c2)NC(=O)[C@H](Cc2c[nH]cn2)NC(=O)[C@H](CCC(=O)O)NC1=O` [Ac-c(Cys-Glu-His-D-2-Nal-Arg-Trp-Ala-Cys)-Pro-Pro-Lys-Asp-NH2] (Ac-CEH[d2Nal]RWACPPKD-NH2; disulfide 1-8), the Kb was found to be 33.4 nM in experiment [1] (setting [6]) and 0.687 nM in experiment [2] (setting [7]). In addition, the EC50 came out at 66.1 nM in experiment [4] (setting [8]) and 6.84 nM in experiment [5] (setting [9]).

For `CCCC[C@H](NC(C)=O)C(=O)N[C@H]1CC(=O)NCCCC[C@@H](C(=O)NCCC(=O)NCCC(=O)N[C@@H](Cc2ccc(O)cc2)C(=O)NCC(=O)N[C@@H](CCCNC(=N)N)C(=O)N[C@@H](CCCCN)C(=O)N[C@@H](CCCCN)C(=O)N[C@@H](CCCNC(=N)N)C(=O)N[C@@H](CCCNC(=N)N)C(=O)N[C@@H](CCC(N)=O)C(=O)N[C@@H](CCCNC(=N)N)C(=O)N[C@@H](CCCNC(=N)N)C(=O)N[C@@H](CCCNC(=N)N)C(N)=O)NC(=O)[C@H](Cc2c[nH]c3ccccc23)NC(=O)[C@H](CCCNC(=N)N)NC(=O)[C@@H](Cc2ccc3ccccc3c2)NC(=O)[C@H](Cc2c[nH]cn2)NC1=O`, the Kb in experiment [1] (setting [6]) was determined as 16.2 nM; in experiment [2] (setting [7]), 7.94 nM. Moreover, the EC50 in experiment [4] (setting [8]) was 1.39 nM; in experiment [5] (setting [9]), 0.839 nM.
